Experimental data from DBAASP.
Values after ≈ are worked out from the molar mass of the structure shown. Each block holds one compound with its values, some of them ahead of it.

What was measured:
Assay in all cases: ≥ marks a high value that may be exact or a test limit, other limits are often not marked, values filed in µg/mL are converted to µM
[1] = test system: Bacillus subtilis KCTC 3068
Enterococcus faecalis VR = test system: Enterococcus faecalis VR
Enterococcus faecalis = test system: Enterococcus faecalis
Enterococcus faecium VR = test system: Enterococcus faecium VR
Enterococcus faecium = test system: Enterococcus faecium
[2] = test system: Escherichia coli KCTC 1682
[3] = test system: Pseudomonas aeruginosa KCTC 1637
[4] = test system: Salmonella typhimurium KCTC 1926
[5] = test system: Staphylococcus aureus KCTC 1621
Staphylococcus aureus MR = test system: Staphylococcus aureus MR
[6] = test system: Staphylococcus epidermidis KCTC 1917
[7] = test system: Bacillus cereus ATCC 11778
[8] = test system: Escherichia coli ATCC 25922
[9] = test system: Klebsiella pneumoniae ATCC 700603
[10] = test system: Pseudomonas aeruginosa ATCC 27853
[11] = test system: Salmonella enterica subsp. enterica serovar Enteritidis ATCC 13076
[12] = test system: Serratia marcescens ATCC 21202
[13] = test system: Staphylococcus aureus ATCC 29213
[14] = test system: Streptococcus pyogenes ATCC 19615
[15] = test system: Bacillus subtilis CMCC 63501
Candida albicans CA2761 = test system: Candida albicans CA2761
[16] = test system: Candida albicans CGMCC 2.2086
[17] = test system: Candida krusei CGMCC 2.1857
[18] = test system: Candida tropicalis CGMCC 2.1975
Escherichia coli EC183 = test system: Escherichia coli EC183
Escherichia coli UB1005 = test system: Escherichia coli UB1005
[19] = test system: Salmonella enterica subsp. enterica serovar Typhimurium C77-31
[20] = test system: Staphylococcus aureus ATCC 25923
[21] = test system: Staphylococcus epidermidis ATCC 12228
[22] = test system: Acinetobacter baumannii ATCC 15308
Citrobacter sp. = test system: Citrobacter sp.
Enterobacter cloacae = test system: Enterobacter cloacae
Klebsiella pneumoniae = test system: Klebsiella pneumoniae
[23] = test system: Pseudomonas aeruginosa ATCC 15442
Staphylococcus aureus = test system: Staphylococcus aureus
Streptococcus pneumoniae = test system: Streptococcus pneumoniae
[24] = test system: Aspergillus niger ATCC 16404
[25] = test system: Candida albicans ATCC 10231
[26] = test system: Candida glabrata ATCC 15126
[27] = test system: Enterococcus faecalis PCM 2673
[28] = test system: Escherichia coli ATCC 23506
[29] = test system: Pseudomonas aeruginosa ATCC 9027
[30] = test system: Staphylococcus aureus ATCC 9144
[31] = test system: Streptococcus pneumoniae ATCC 49619
[32] = test system: Streptococcus gordonii ATCC 10558
[33] = test system: Streptococcus oralis ATCC 9811
[34] = test system: Streptococcus sanguinis ATCC 10556

Compound: CC[C@H](C)[C@H](NC(=O)[C@H](CC(=O)O)NC(=O)[C@H](CCSC)NC(=O)[C@H](CC(C)C)NC(=O)CN)C(=O)N[C@@H](Cc1ccccc1)C(=O)N[C@@H](CCCCN)C(=O)N[C@H](C(=O)N[C@@H](C)C(=O)N[C@H](C(=O)N[C@@H](CC(N)=O)C(=O)N[C@@H](CCCCN)C(=O)N[C@@H](CC(C)C)C(=O)N[C@@H](CC(C)C)C(=O)N[C@@H](C)C(=O)N[C@@H](C)C(=O)NCC(=O)N[C@@H](CCSC)C(=O)N[C@@H](CC(N)=O)C(=O)N[C@@H](CCCCN)C(=O)N1CCC[C@H]1C(=O)N[C@@H](CCCN=C(N)N)C(=O)N[C@H]1CSSC[C@@H](C(=O)O)NC(=O)[C@H](Cc2cnc[nH]2)NC(=O)[C@H](C)NC(=O)[C@H](C)NC(=O)[C@H](CCCCN)NC1=O)C(C)C)C(C)C [GLMDIFKVAVNKLLAAGMNKPRCKAAHC]
- MIC [7]: 17.8 µM (≈ 53.4 µg/mL)
- MIC [8]: 9.35 µM (≈ 28 µg/mL)
- MIC [9]: 9.35 µM (≈ 28 µg/mL)
- MIC [10]: > 33.3 µM
- MIC [11]: 17.8 µM (≈ 53.4 µg/mL)
- MIC [12]: 9.35 µM (≈ 28 µg/mL)
- MIC [13]: 9.35 µM (≈ 28 µg/mL)
- MIC [14]: 17.8 µM (≈ 53.4 µg/mL)

Compound: CC[C@H](C)[C@H](NC(=O)[C@H](Cc1c[nH]c2ccccc12)NC(=O)[C@H](CCCCN)NC(=O)[C@H](CC(C)C)NC(=O)[C@@H](NC(=O)[C@H](CCCCN)NC(=O)CNC(=O)[C@@H](NC(=O)[C@H](CCCCN)NC(=O)[C@H](CCCCN)NC(=O)[C@H](CC(C)C)NC(=O)[C@H](CCCN=C(N)N)NC(=O)[C@H](CCCCN)NC(=O)[C@H](CCCN=C(N)N)NC(=O)[C@@H](N)[C@@H](C)O)[C@@H](C)CC)C(C)C)C(N)=O [TRKRLKKIGKVLKWI]
- MIC [15]: 2 µM (≈ 3.73 µg/mL)
- MIC (Candida albicans CA2761): ≥ 128 µM
- MIC [16]: ≥ 64 µM
- MIC [17]: 8 µM (≈ 14.9 µg/mL)
- MIC [18]: 2 µM (≈ 3.73 µg/mL)
- MIC [8]: 8 µM (≈ 14.9 µg/mL)
- MIC (Escherichia coli EC183): 2 µM (≈ 3.73 µg/mL)
- MIC (Escherichia coli UB1005): 4 µM (≈ 7.47 µg/mL)
- MIC [19]: 8 µM (≈ 14.9 µg/mL)
- MIC [20]: 32 µM (≈ 59.7 µg/mL)
- MIC [13]: 32 µM (≈ 59.7 µg/mL)
- MIC [21]: 32 µM (≈ 59.7 µg/mL)

Compound: CC[C@H](C)[C@H](NC(=O)CNC(=O)[C@H](CCCCN)NC(=O)[C@H](Cc1ccccc1)NC(=O)[C@H](CC(C)C)NC(=O)[C@H](CCCCN)NC(=O)[C@H](CCCCN)NC(=O)[C@H](C)NC(=O)[C@H](CCCCN)NC(=O)[C@H](CCCCN)NC(=O)[C@H](Cc1ccccc1)NC(=O)CNC(=O)[C@H](CCCCN)NC(=O)[C@H](C)NC(=O)[C@H](Cc1ccccc1)NC(=O)[C@@H](NC(=O)[C@H](CCCCN)NC(=O)[C@@H](NC(=O)[C@H](CC(C)C)NC(=O)[C@H](CCCCN)NC(=O)[C@@H](N)CCCCN)[C@@H](C)CC)C(C)C)C(=O)NCC(N)=O [KKLIKVFAKGFKKAKKLFKGIG]
- MIC [24]: 12.9 µM (≈ 32 µg/mL)
- MIC [25]: 103 µM (≈ 256 µg/mL)
- MIC [26]: ≥ 51.7 µM
- MIC [27]: 25.8 µM (≈ 64 µg/mL)
- MIC [28]: 0.807 µM (≈ 2 µg/mL)
- MIC [8]: 3.23 µM (≈ 8 µg/mL)
- MIC [9]: 0.101 µM (≈ 0.25 µg/mL)
- MIC [29]: 0.807 µM (≈ 2 µg/mL)
- MIC [20]: 51.7 µM (≈ 128 µg/mL)
- MIC [30]: 25.8 µM (≈ 64 µg/mL)
- MIC [31]: 1.61 µM (≈ 4 µg/mL)

Compound: CC[C@H](C)[C@H](NC(=O)CNC(=O)CNC(=O)CNC(=O)CNC(=O)[C@H](Cc1c[nH]c2ccccc12)NC(=O)[C@@H](NC(=O)[C@H](Cc1cnc[nH]1)NC(=O)[C@H](CCSC)NC(=O)CNC(=O)[C@@H]1CCCN1C(=O)[C@H](C)NC(=O)[C@H](CC(=O)O)NC(=O)[C@@H]1CCCN1C(=O)[C@H](CC(C)C)NC(=O)[C@H](CCCCN)NC(=O)[C@@H](N)CCCN=C(N)N)[C@@H](C)O)C(=O)N[C@@H](CC(N)=O)C(=O)N[C@H](C(=O)N[C@@H](CC(C)C)C(=O)N[C@@H](CCC(N)=O)C(=O)N[C@@H](CCCCN)C(=O)N[C@@H](Cc1ccc(O)cc1)C(=O)N[C@@H](Cc1ccc(O)cc1)C(=O)N[C@@H](CS)C(=O)N[C@@H](CCCN=C(N)N)C(=O)N[C@H](C(=O)N[C@@H](CCCN=C(N)N)C(=O)NCC(=O)O)C(C)C)[C@@H](C)O [RKLPDAPGMHTWGGGGINTLQKYYCRVRG]
- MIC [32]: ≥ 186 µM
- MIC [33]: ≥ 155 µM
- MIC [34]: ≥ 186 µM

Now from value to compound:

- MIC [1]: 30 µM
- MIC (Enterococcus faecalis VR): 30 µM
- MIC (Enterococcus faecalis): 30 µM
- MIC (Enterococcus faecium VR): 30 µM
- MIC (Enterococcus faecium): 30 µM
- MIC [2]: 15 µM
- MIC [3]: 30 µM
- MIC [4]: 30 µM
- MIC [5]: 30 µM
- MIC (Staphylococcus aureus MR): 30 µM
- MIC [6]: 15 µM
Compound: CC(C)C[C@H](NC(=O)[C@H](CC(C)C)NC(=O)[C@H](CS)NC(=O)[C@H](Cc1cnc[nH]1)NC(=O)[C@H](C)NC(=O)[C@H](C)N)C(=O)N[C@@H](CCCN=C(N)N)C(=O)NCC(=O)N[C@@H](CC(N)=O)C(=O)N[C@@H](CCCN=C(N)N)C(N)=O [AAHCLLRGNR]

- MIC [22]: 18.2 µM (≈ 31.2 µg/mL)
- MIC (Citrobacter sp.): ≥ 146 µM
- MIC (Enterobacter cloacae): ≥ 146 µM
- MIC [8]: 4.55 µM (≈ 7.81 µg/mL)
- MIC (Klebsiella pneumoniae): > 146 µM
- MIC [23]: 18.2 µM (≈ 31.2 µg/mL)
- MIC [20]: 4.55 µM (≈ 7.81 µg/mL)
- MIC (Staphylococcus aureus): 4.55 µM (≈ 7.81 µg/mL)
- MIC (Streptococcus pneumoniae): 4.55 µM (≈ 7.81 µg/mL)
Compound: CC[C@H](C)[C@H](NC(=O)[C@H](CC(C)C)NC(=O)CNC(=O)CNC(=O)[C@H](CC(C)C)NC(=O)[C@@H](N)Cc1ccccc1)C(=O)N[C@@H](CCCCN)C(=O)N[C@@H](Cc1c[nH]c2ccccc12)C(=O)N[C@@H](Cc1c[nH]c2ccccc12)C(=O)N1CCC[C@H]1C(=O)N[C@@H](Cc1c[nH]c2ccccc12)C(=O)N[C@@H](CCCN=C(N)N)C(=O)N[C@@H](CCCN=C(N)N)C(N)=O [FLGGLIKWWPWRR]
